Laboratory results from paper PMC6017645, “Substrate Binding Switches the Conformation at the Lynchpin Site in the Substrate-Binding Domain of Human Hsp70 to Enable Allosteric Interdomain Communication” (Molecules : A Journal of Synthetic Chemistry and Natural …, 2018).
One block for each molecule: values may come before it.

Columns and labels:
[1] = target: T1, SBD(∆CDE)-y of human Hsp70 (Homo sapiens, UniProt P0DMV8, L542Y); assay: Binding kinetics estimated from simulation of NMR exchange
T1 construct: We solved the solution structure of SBD(∆CDE) comprising residues 382–564; His6 (N, cleaved yes); made in house; host or cells: E. coli BL21(DE3)
Experimental: This gives a kon = 2.3 × 10^4 M^−1 s^−1, which is consistent with the kinetics for the lidless SBD of DnaK in binding to its target peptide (kon = 2 × 10^4 M^−1 s^−1 and koff = 12.5 s^−1).
The NMR titration experiments were performed by acquiring a series of 2D ^1H-^15N HSQC spectra of the protein in 50 mM potassium phosphate (pH 7.0), 50 mM KCl and 10 mM DTT at 310 K (37 °C). The NR-peptide (0.075 mM, 0.15 mM, 0.30 mM, 0.60 mM, 1.2 mM, 3.0 mM and 6.0 mM) was titrated into a sample containing 0.3 mM ^15N labeled SBD(∆CDE)-y. Data processing and analysis were performed with NMRPipe and KUJIRA [41], respectively. The dissociation constant, KD, was estimated by fitting Equation (1) to the bound fraction of SBD(∆CDE)-y, fbound: (1) fbound([L]total)=1−I([L]total)/I0=([P]total+[L]total+KD)−([P]total+[L]total+KD)^2−4[P]total[L]total/2[P]total where [L]total and [P]total are the total concentrations of NR-peptide and SBD(∆CDE)-y, respectively, and I and I0 are the signal intensities with and without NR-peptide. Each signal intensity was measured by a similar procedure described in Section 4.3. […] Uncertainties in the dissociation constant was estimated by Monte Carlo simulations on the basis of the uncertainty for each signal intensity evaluated using the root-mean-square deviation value on a spectral region with no signals, which was obtained by the NMRPipe built-in module.

[2] = system: SBD in Hsp70 with covalently modified E444; details: PDB ID: 4WV7; ref [29]; cited from earlier work
Description: E444 in Hsp70 is accessible by NBD in the apo-form SBD(∆CDE)-y, whereas it is covered by the Lα,β loop and therefore this interaction is hindered in the substrate-bound form (Figure 7a,b). This is consistent with the observation for Q442 in DnaK, as described above.

[3] = target: T2, SBD(∆CDE)-y, substrate-binding domain of human Hsp70 (HSPA1A) lacking αC, αD and αE, with the L542Y mutation (human, UniProt P0DMV8 382-564, L542Y); assay: ITC; 1.5 μL injections of 5 mM NR-peptide into 200 μL of 0.1 mM SBD(∆CDE)-y; single-site fit with the stoichiometry fixed as n = 1; triplicate; details: both partners purified
T2 construct: Cloned in pET16b (NdeI/XhoI); 15N- or 13C/15N-labelled for NMR, unlabelled (LB medium) for ITC; also called mutant SBD; apo-form SBD; source: E. coli BL21(DE3), purified (HisTrap FF, Factor Xa cleavage, HiTrap Q FF); not shown: His6, N-terminal, cleaved

[4] = target: T3, SBD(∆CDE) (S537C/L542Y) mutant, labelled at residue 537 with MTSL or its diamagnetic analog (human, UniProt P0DMV8 382-564, S537C | L542Y, MTSL nitroxide radical, or the diamagnetic MTSL analog, on C537); assay: NMR paramagnetic relaxation enhancement; 2D 1H-15N HSQC of 0.5 mM spin-labelled SBD(∆CDE) (S537C/L542Y) with/without 5.0 mM NR-peptide; 50 mM potassium phosphate pH 7.0, 50 mM KCl, 37 °C; details: both partners purified
T3 construct: 15N-labelled for NMR; PDB 5XIR is the parent SBD(∆CDE)-y without S537C; also called SBD(∆CDE)-y harboring a S537C mutation; SBD(∆CDE)-y with spin labeling at residue 537; source: E. coli BL21(DE3), purified (as in Section 4.1), then labelled with MTSL; not shown: His6, N-terminal, cleaved

[5] = target: T2, SBD(∆CDE)-y, substrate-binding domain …; assay: NMR titration; 2D 1H-15N HSQC; NR-peptide (0.075-6.0 mM) titrated into 0.3 mM 15N-labelled SBD(∆CDE)-y; 50 mM potassium phosphate pH 7.0, 50 mM KCl, 10 mM DTT, 37 °C; slow exchange; global fit of signal intensities of 28 residues; details: both partners purified

T1 sequence (P0DMV8 382-564 L542Y): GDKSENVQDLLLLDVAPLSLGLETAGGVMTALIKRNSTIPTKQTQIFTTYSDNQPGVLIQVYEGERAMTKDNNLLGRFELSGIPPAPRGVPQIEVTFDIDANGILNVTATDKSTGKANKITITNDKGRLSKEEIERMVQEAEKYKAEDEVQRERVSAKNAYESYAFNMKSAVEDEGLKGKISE
T2 sequence (P0DMV8 382-564 L542Y): as above
T3 sequence (P0DMV8 382-564 S537C/L542Y): as the sequence (P0DMV8 382-564 L542Y) above, with S156C counted along it

kon ([1]; from koff 30 s^−1 and KD = 1.3 mM): 23000 M⁻¹ s⁻¹
koff ([1]; simulation using average R2 rate 21 s^−1 and KD = 1.3 mM, SBD(∆CDE)-y 0.3 mM, peptide 3.0 mM, read-out: maximum koff): ≤ 30 s⁻¹
Molecule: CC(C)C[C@H](NC(=O)[C@H](CC(C)C)NC(=O)[C@H](CCCNC(=N)N)NC(=O)[C@@H](N)CC(N)=O)C(=O)N[C@@H](CC(C)C)C(=O)N[C@H](C(=O)NCC(=O)O)[C@@H](C)O [NR-peptide]

Molecule: C=CC1=CC[C@H]2[C@@H](C[C@@H](O)[C@@]3(O)[C@@]4(C)C(=O)O[C@H]4CC[C@]23C)[C@H]1C [novolactone]
effect of covalent E444 modification on interdomain interactions [2]: sterically blocks the interdomain interactions

Kd [3]: 1.5 mM
binding result [4]: binds
Kd [5]: 1.3 mM
B1: NR-peptide (peptide)
peptide: NRLLLTG
notes: Model client peptide of Hsp70; also called NRLLLTG; client-peptide
